This is an account of results in patent US6780861B2, “Azabicyclic carbamates and their use as α-7 nicotinic acetylcholine receptor agonists” (Novartis AG, priority 2000, dated 2004).

The term melting point denotes the temperature, or range, at which the solid turns liquid.

Where a name gives a salt, the structure may show the parent alone.

In turn, `O=C(NC1CN2CCC1CC2)OCc1ccc2c(c1)OCO2` (centres unmarked) (as salt: hydrochloride) had a melting point of 186 to 187 °C.
As for `COc1cc(COC(=O)NC2CN3CCC2CC3)cc(OC)c1OC` (centres unmarked) (as salt: hydrochloride), the figure is 211 to 212 °C.
